Laboratory results taken from patent US10611730B2, “Benzimidazolone and benzothiazolone compounds and their use as AMPA receptor modulators” (Janssen Pharmaceutica NV, priority 2015, dated 2020).

What follows are molecules tested against TARP γ8 dependent AMPA receptor (GluA1o-g8 fusion channel) (Homo sapiens (Human), UniProt P42261+Q8WXS5) (assay: Calcium flux assay (FLIPR), HEK293 cells expressing GRIA1o-CACNG8 fusion). Details: inhibition of calcium flux after 15 μM glutamate, read-out: GluR1-γ8 pIC50 (converted).
Sequence of TARP γ8 dependent AMPA receptor (GluA1o-g8 fusion channel) (P42261 other isoform, or with tags, fused parts or gaps): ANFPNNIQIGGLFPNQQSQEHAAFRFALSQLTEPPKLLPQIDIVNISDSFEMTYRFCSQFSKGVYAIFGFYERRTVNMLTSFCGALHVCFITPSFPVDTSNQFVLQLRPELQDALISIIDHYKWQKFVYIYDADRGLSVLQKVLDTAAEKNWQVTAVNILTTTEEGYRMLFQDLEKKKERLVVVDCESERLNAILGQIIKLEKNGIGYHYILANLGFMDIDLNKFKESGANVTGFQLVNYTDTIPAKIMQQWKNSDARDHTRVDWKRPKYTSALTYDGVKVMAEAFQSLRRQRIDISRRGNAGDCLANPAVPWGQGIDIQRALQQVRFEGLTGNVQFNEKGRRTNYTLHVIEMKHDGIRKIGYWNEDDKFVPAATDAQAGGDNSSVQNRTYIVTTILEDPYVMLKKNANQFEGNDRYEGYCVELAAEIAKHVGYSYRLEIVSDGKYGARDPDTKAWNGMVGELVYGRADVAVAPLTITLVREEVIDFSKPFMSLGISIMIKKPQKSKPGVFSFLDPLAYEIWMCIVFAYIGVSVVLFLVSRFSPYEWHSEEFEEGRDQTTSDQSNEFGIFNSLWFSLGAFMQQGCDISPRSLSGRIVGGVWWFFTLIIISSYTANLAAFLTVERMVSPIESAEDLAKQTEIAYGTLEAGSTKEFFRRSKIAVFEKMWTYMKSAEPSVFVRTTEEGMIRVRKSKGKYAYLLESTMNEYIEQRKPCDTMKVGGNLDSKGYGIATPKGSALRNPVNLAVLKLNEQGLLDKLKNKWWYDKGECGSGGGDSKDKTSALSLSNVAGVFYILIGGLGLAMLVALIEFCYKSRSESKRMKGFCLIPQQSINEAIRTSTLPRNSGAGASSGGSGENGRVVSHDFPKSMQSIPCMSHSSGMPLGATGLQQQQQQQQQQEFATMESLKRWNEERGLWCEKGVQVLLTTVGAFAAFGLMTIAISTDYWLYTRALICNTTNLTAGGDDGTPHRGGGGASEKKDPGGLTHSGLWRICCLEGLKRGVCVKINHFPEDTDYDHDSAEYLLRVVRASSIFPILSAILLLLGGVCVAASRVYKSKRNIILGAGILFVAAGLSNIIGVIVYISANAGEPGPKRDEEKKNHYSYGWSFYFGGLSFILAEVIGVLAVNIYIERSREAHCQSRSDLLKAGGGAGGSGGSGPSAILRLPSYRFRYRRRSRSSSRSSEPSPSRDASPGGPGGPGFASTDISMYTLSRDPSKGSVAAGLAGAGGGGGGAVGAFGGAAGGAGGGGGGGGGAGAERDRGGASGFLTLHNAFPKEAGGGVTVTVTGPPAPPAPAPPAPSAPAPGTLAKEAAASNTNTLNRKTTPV
Type: cell-based
Source text: This assay was used to test compounds for their ability to inhibit TARP γ8 dependent AMPA receptor activity.
An in vitro assay was used to determine the potency of test compounds as inhibitors of the glutamate response of the channel formed by GluA1o-g8. To ensure a 1:1 stoichiometry of GluA1o and g8 subunits in the expressed channel, a fusion of the cDNAs for GRIA1o and CACNG8 was used. […] A clonal cell line in HEK293 cells stably expressing this construct, with a geneticin selection marker, was generated for use in this assay. Cell expressing the GRIAlo-CACNG8 fusion construct were grown in a monolayer in 96- or 384-well microtiter plates. […] The cells were then loaded with a calcium-sensitive dye (Calcium-5 or Calcium-6, Molecular Devices) and the test compounds at a range of concentrations.
The fluorescence in each well was normalized to the fluorescence of negative and positive control wells. […] The responses to glutamate as functions of the test compound concentrations were fitted to a four-parameter logistic function. The fitted parameter corresponding to the midpoint was taken to be the potency of inhibition of the compound.
For COc1cccc(OC(C)C(F)(F)F)c1-c1ccc2[nH]c(=O)[nH]c2c1 (racemic) [Example 121, (±)-5-[2-Methoxy-6-(2,2,2-trifluoro-1-methyl-ethoxy)phenyl]-1,3-dihydrobenzimidazol-2-one], the IC50 was 158 nM.
Molecule CC(C)(C)OC(=O)N1CC(Oc2cccc(-c3ccc4[nH]c(=O)[nH]c4c3)c2Cl)C1 [Example 114, tert-Butyl 3-[2-chloro-3-(2-oxo-1,3-dihydrobenzimidazol-5-yl)phenoxy]azetidine-1-carboxylate] has an IC50 of 200 nM.
C[C@H](Oc1cccc(Cl)c1-c1ccc2[nH]c(=O)[nH]c2c1)C(F)(F)F (single isomer, unassigned) [Example 120, (S*)-5-[2-Chloro-6-(2,2,2-trifluoro-1-methyl-ethoxy)phenyl]-1,3-dihydrobenzimidazol-2-one] gave an IC50 of 79.4 nM.
O=c1[nH]c2ccc(-c3ccc(OC(F)(F)F)cc3Cl)cc2[nH]1 [Example 30, 5-[2-Chloro-4-(trifluoromethoxy)phenyl]-1,3-dihydrobenzimidazol-2-one] gave an IC50 of 1580 nM.
For COc1cc(OC(F)(F)F)ccc1-c1ccc2[nH]c(=O)[nH]c2c1 [Example 33, 5-[2-Methoxy-4-(trifluoromethoxy)phenyl]-1,3-dihydrobenzimidazol-2-one], the IC50 was 316 nM.
O=C(c1ccc(Cl)c(-c2ccc3[nH]c(=O)[nH]c3c2)c1)N1CCCC1 [Example 84, 5-[2-Chloro-5-(pyrrolidine-1-carbonyl)phenyl]-1,3-dihydrobenzimidazol-2-one] gave an IC50 of 7940 nM.
In the case of Cc1ccccc1-c1ccc2[nH]c(=O)[nH]c2c1 [Example 3, 5-(o-Tolyl)-1,3-dihydrobenzimidazol-2-one], the IC50 is reported as 1260 nM.
For Cc1ccnc(Cl)c1-c1ccc2[nH]c(=O)[nH]c2c1 [Example 70, 5-(2-Chloro-4-methyl-3-pyridyl)-1,3-dihydrobenzimidazol-2-one], the IC50 was 794 nM.
Work on Cc1c(C#N)cccc1-c1ccc2[nH]c(=O)[nH]c2c1 [Example 67, 2-Methyl-3-(2-oxo-1,3-dihydrobenzimidazol-5-yl)benzonitrile] yielded an IC50 of 251 nM.
For O=c1[nH]c2ccc(-c3c(Cl)cccc3-c3ccncc3)cc2[nH]1 [Example 170, 5-[2-Chloro-6-(4-pyridyl)phenyl]-1,3-dihydrobenzimidazol-2-one], the IC50 was 316 nM.
Work on CC(C)(C)OC(=O)N1CCN(c2ccccc2-c2ccc3[nH]c(=O)[nH]c3c2)CC1 [Example 9, tert-Butyl 4-[2-(2-oxo-1,3-dihydrobenzimidazol-5-yl)phenyl]piperazine-1-carboxylate] yielded an IC50 of 794 nM.
CNC(=O)Cc1c(-c2ccc3[nH]c(=O)[nH]c3c2)cccc1C(F)(F)F [Example 78, N-Methyl-2-[2-(2-oxo-1,3-dihydrobenzimidazol-5-yl)-6-(trifluoromethyl)phenyl] acetamide] was tested, and the IC50 was 200 nM.
For O=c1[nH]c2ccc(-c3cccc(Cl)c3C(F)(F)F)cc2[nH]1 [Example 34, 5-[3-Chloro-2-(trifluoromethyl)phenyl]-1,3-dihydrobenzimidazol-2-one], the IC50 was 251 nM.
Molecule Cc1c(-c2cccc(Cl)c2-c2ccc3[nH]c(=O)[nH]c3c2)cnn1C [Example 177, 5-[2-Chloro-6-(1,5-dimethylpyrazol-4-yl)phenyl]-1,3-dihydrobenzimidazol-2-one] has an IC50 of 794 nM.
Cc1ccc(OCC(C)C)c(-c2ccc3[nH]c(=O)[nH]c3c2)c1 [Example 15, 5-(2-Isobutoxy-5-methyl-phenyl)-1,3-dihydrobenzimidazol-2-one] gave an IC50 of 31.6 nM.
Molecule O=c1[nH]c2ccc(-c3cccc(-c4nnco4)c3Cl)cc2[nH]1 [Example 190, 5-[2-Chloro-3-(1,3,4-oxadiazol-2-yl)phenyl]-1,3-dihydrobenzimidazol-2-one] has an IC50 of 2000 nM.
For CC(C)(C)COc1cccc(Cl)c1-c1ccc2[nH]c(=O)[nH]c2c1 [Example 98, 5-[2-Chloro-6-(2,2-dimethylpropoxy)phenyl]-1,3-dihydrobenzimidazol-2-one], the IC50 was 50.1 nM.
CC1(C)CN(Cc2cccc(-c3ccc4[nH]c(=O)[nH]c4c3)c2Cl)CCO1 [Example 143, 5-[2-Chloro-3-[(2,2-dimethylmorpholin-4-yl)methyl]phenyl]-1,3-dihydrobenzimidazol-2-one] gave an IC50 of 100 nM.
With Cn1cc(-c2cccc(Cl)c2-c2ccc3[nH]c(=O)[nH]c3c2)cn1 [Example 173, 5-[2-Chloro-6-(1-methylpyrazol-4-yl)phenyl]-1,3-dihydrobenzimidazol-2-one] the IC50 was 398 nM.
Cc1ccc(C)c(-c2ccc3[nH]c(=O)[nH]c3c2)c1 [Example 21, 5-(2,5-Dimethylphenyl)-1,3-dihydrobenzimidazol-2-one] was tested, and the IC50 was 398 nM.
O=Cc1cccc(F)c1-c1ccc2[nH]c(=O)[nH]c2c1 [Example 27, 3-Fluoro-2-(2-oxo-1,3-dihydrobenzimidazol-5-yl)benzaldehyde] was tested, and the IC50 was 1580 nM.
N#CCc1ccccc1-c1ccc2[nH]c(=O)[nH]c2c1 [Example 41, 2-[2-(2-Oxo-1,3-dihydrobenzimidazol-5-yl)phenyl]acetonitrile] showed an IC50 of 501 nM.
COc1cccc(OC(C)C)c1-c1ccc2[nH]c(=O)sc2c1 [Example 77, 6-(2-Isopropoxy-6-methoxy-phenyl)-3H-1,3-benzothiazol-2-one] gave an IC50 of 12.6 nM.
For O=c1[nH]c2ccc(-c3c(Cl)cccc3CN3CCOCC3)cc2[nH]1 [Example 145, 5-[2-Chloro-6-(morpholinomethyl)phenyl]-1,3-dihydrobenzimidazol-2-one], the IC50 was 1000 nM.
In the case of O=c1[nH]c2ccc(-c3ccccc3-c3ccccc3)cc2[nH]1 [Example 5, 5-(2-Phenylphenyl)-1,3-dihydrobenzimidazol-2-one], the IC50 is reported as 100 nM.
Molecule O=c1[nH]c2ccc(-c3c(Cl)cncc3Cl)cc2[nH]1 [Example 69, 5-(3,5-Dichloro-4-pyridyl)-1,3-dihydrobenzimidazol-2-one] has an IC50 of 501 nM.
With CN(C)c1cccc(-c2ccc3[nH]c(=O)[nH]c3c2)c1Cl [Example 189, 5-[2-Chloro-3-(dimethylamino)phenyl]-1,3-dihydrobenzimidazol-2-one] the IC50 was 3980 nM.
For CC(C)Oc1cccc(Cl)c1-c1ccc2[nH]c(=O)[nH]c2c1 [Example 91, 5-(2-Chloro-6-isopropoxy-phenyl)-1,3-dihydrobenzimidazol-2-one], the IC50 was 79.4 nM.
O=c1[nH]c2ccc(-c3c(OCC4CC4)cccc3OC(F)(F)F)cc2[nH]1 [Example 89, 5-[2-(Cyclopropylmethoxy)-6-(trifluoromethoxy)phenyl]-1,3-dihydrobenzimidazol-2-one] gave an IC50 of 3.98 nM.
Cc1c(C(=O)N(C)C)cccc1-c1ccc2[nH]c(=O)[nH]c2c1 [Example 81, N,N,2-Trimethyl-3-(2-oxo-1,3-dihydrobenzimidazol-5-yl)benzamide] showed an IC50 of 3160 nM.
For COc1cccc(OC(C)C)c1-c1ccc2[nH]c(=O)[nH]c2c1 [Example 28, 5-(2-Isopropoxy-6-methoxy-phenyl)-1,3-dihydrobenzimidazol-2-one], the IC50 was 79.4 nM.
Cc1noc(-c2cccc(-c3ccc4[nH]c(=O)sc4c3)c2C)n1 [Example 204, 6-[2-Methyl-3-(3-methyl-1,2,4-oxadiazol-5-yl)phenyl]-3H-1,3-benzothiazol-2-one] gave an IC50 of 2510 nM.
With O=c1[nH]c2ccc(-c3cccc(Cl)c3OC(F)(F)F)cc2[nH]1 [Example 29, 5-[3-Chloro-2-(trifluoromethoxy)phenyl]-1,3-dihydrobenzimidazol-2-one] the IC50 was 31.6 nM.
Work on N#CCc1ccc(Cl)c(-c2ccc3[nH]c(=O)[nH]c3c2)c1Cl [Example 131, 2-[2,4-Dichloro-3-(2-oxo-1,3-dihydrobenzimidazol-5-yl)phenyl]acetonitrile] yielded an IC50 of 2000 nM.
For O=c1[nH]c2ccc(-c3c(Cl)cccc3-c3cncc(C(F)(F)F)c3)cc2[nH]1 [Example 169, 5-[2-Chloro-6-[5-(trifluoromethyl)-3-pyridyl]phenyl]-1,3-dihydrobenzimidazol-2-one], the IC50 was 251 nM.
Molecule COC(=O)c1ccc(Cl)c(-c2ccc3[nH]c(=O)[nH]c3c2)c1 [Example 44, Methyl 4-chloro-3-(2-oxo-1,3-dihydrobenzimidazol-5-yl)benzoate] has an IC50 of 316 nM.
Work on CC(C)n1nccc1-c1cccc(Cl)c1-c1ccc2[nH]c(=O)[nH]c2c1 [Example 175, 5-[2-Chloro-6-(2-isopropylpyrazol-3-yl)phenyl]-1,3-dihydrobenzimidazol-2-one] yielded an IC50 of 1260 nM.
Cc1c(-c2ccc3[nH]c(=O)[nH]c3c2)cccc1-c1ncon1 [Example 206, 5-[2-Methyl-3-(1,2,4-oxadiazol-3-yl)phenyl]-1,3-dihydrobenzimidazol-2-one] gave an IC50 of 31.6 nM.
N#CCc1cccc(-c2ccccc2F)c1-c1ccc2[nH]c(=O)[nH]c2c1 [Example 136, 2-[3-(2-Fluorophenyl)-2-(2-oxo-1,3-dihydrobenzimidazol-5-yl)phenyl]acetonitrile] showed an IC50 of 158 nM.
In the case of O=c1[nH]c2ccc(-c3c(Cl)cccc3OCc3ccccc3)cc2[nH]1 [Example 99, 5-(2-Benzyloxy-6-chloro-phenyl)-1,3-dihydrobenzimidazol-2-one], the IC50 is reported as 63.1 nM.
For O=c1[nH]c2cc(-c3c(Cl)cccc3OC(F)(F)F)cc(F)c2[nH]1 [Example 214, 6-(2-chloro-6-(trifluoromethoxy)phenyl)-4-fluoro-1,3-dihydro-2H-benzo[d]imidazol-2-one], the IC50 was 2.51 nM.
O=c1[nH]c2ccc(-c3c(Cl)cccc3-c3cncc(F)c3)cc2[nH]1 [Example 166, 5-[2-Chloro-6-(5-fluoro-3-pyridyl)phenyl]-1,3-dihydrobenzimidazol-2-one] was tested, and the IC50 was 63.1 nM.
